Source: patent publication US9540299B2, “MTOR-independent activator of TFEB for autophagy enhancement and uses thereof” (Hong Kong Baptist University, priority 2015, dated 2017)

Tested on: MTOR pathway
Test: Effects on MTOR pathway: phosphorylation by western blot in N2a cells
Type: cell-based, mouse
Details: for phosphorylation of RPS6KB1/p70S6K, MTOR and AKT: 12 h, curcumin 10 μM, analogs 1 μM; for phosphorylation of RPS6KB1/p70S6K and MTOR: 12 hours
Procedure: N2a cells were treated with curcumin (Cur, 10 μM), A2, B3 and C1 (1 μM) for 12 h. Torin 1 (1 μM) treatment for 2 h was used as a positive control. […] FIG. 3B is a bar chart showing the expression of phosphorylated (p−) and total RPS6KB1/P70S6K, MTOR and AKT. Data are presented as the mean±SD from three independent experiments. *p<0.05 vs. the control (0.1% DMSO).
N2a cells are treated with E2, E3 and E4 (1 μM) for 12 hours. Torin 1 (1 μM) treatment for 2 hours is used as a positive control. The expression of phosphorylated (p−) and total RPS6KB1/P70S6K and MTOR are shown in Western blotting (FIG. 15A). The phosphorylation of RPS6KB1 and MTOR levels are also quantified (FIG. 15B). Data are presented as the mean±SD from three independent experiments. *p<0.05 vs. the control (0.1% DMSO).
N2a cells are treated with different concentrations of E4 (0-1 μM) and Torin 1 (1 μM) for 6 hours. The expression of phosphorylated (p−) and MTOR are detected by Western blotting (FIG. 23A). The phosphorylation of MTOR levels are also quantified (FIG. 23B). Data are presented as the mean±SD from three independent experiments. *p<0.05 vs. the control (0.1% DMSO).
N2a cells are treated with E4 (1 μM) for indicated times and Torin 1 (1 μM) for 6 hours. The expression of phosphorylated (p−) and total RPS6KB1/P70S6K and MTOR are detected by Western blotting (FIG. 24A). The phosphorylation of RPS6KB1 and MTOR levels are also quantified (FIG. 24B). Data are presented as the mean±SD from three independent experiments. *p<0.05 vs. the control (0.1% DMSO).
N2a, Hela and Hela cells stably expressing 3×-Flag-TFEB are cultured in DMEM supplemented with 10% FBS. SH-SY5Y cells are cultured in DMEM/F12 supplemented with 10% FBS. For drug treatment, the full medium is replaced by fresh Opti-MEM I and then the compounds (in 0.1% DMSO) are added to the cells and incubated for 12 h. Inducible PC12 cells overexpressing SNCA (WT and A53T) (a kind gift from Prof. David C. Rubinsztein at Cambridge University) are grown in DMEM supplemented with 10% horse serum, 5% FBS, 50 μg/ml G418, and 150 μg/ml hygromycin B at 37° C., 10% CO2. Cells are treated with 2 μg/ml doxycycline (Dox) for 24 h to induce SNCA expression. The full medium is changed to Opti-MEM I containing the testing compounds for another 48 h.
Cells are lysed on ice in 1× Lysis Buffer (9803, Life Technologies) with complete protease inhibitor mixture (04693124001, Roche Applied Science). Animal tissues are homogenized in nine volumes of ice-cold PBS supplemented with protease inhibitors. Cytosolic and nuclear fractions are isolated using protocols similar to those described previously. Anti-Flag or TFEB antibody is added to the whole cell lysates and Dynabeads® Protein G (10003D, Life Technologies) is used for immunoprecipitation. Proteins are separated by 10-15% SDS-PAGE, transferred, and blotted with the antibodies described. The blots are then incubated with secondary antibodies or the Clean-Blot IP Detection Reagent (21230, Thermo Scientific) at room temperature for 1 h. The protein signals are detected by ECL kit (32106, Pierce) and quantified using ImageJ software.
N2a and HeLa cells are cultured in DMEM supplemented with 10% FBS. HeLa cells stably expressing 3×-Flag-TFEB are maintained in DMEM supplemented with 10% FBS and 500 μg/mL G418. For drug treatment, the full medium is replaced by fresh Opti-MEM I containing the compounds (in 0.1% DMSO) and incubated for the indicated time periods.
Cells are lysed on ice in 1× Lysis Buffer (9803, Life Technologies) with complete protease inhibitor mixture (04693124001, Roche Applied Science) and phosphatase inhibitor (B15001, Biotool). Cytosolic and nuclear fractions are isolated using protocols similar to those described previously. Proteins are separated by 10-15% SDS-PAGE, transferred, and blotted with the antibodies described. The blots are then incubated with primary and secondary antibodies. […]

| Compound | phosphorylation of RPS6KB1/p70S6K, MTOR and AKT | phosphorylation of RPS6KB1/p70S6K and MTOR (1 μM) | further results |
| --- | --- | --- | --- |
| O=C(/C=C/c1cccc(C(F)(F)F)c1)/C=C/c1cccc(C(F)(F)F)c1 [A2, 1,5-bis(3-(trifluoromethyl)phenyl)penta-1,4-dien-3-one] | inhibit | – | – |
| O=C(/C=C/c1ccc(O)cc1)/C=C/c1ccc(O)cc1 [B3, 1,5-bis(4-hydroxyphenyl)penta-1,4-dien-3-one] | inhibit | – | – |
| COc1ccccc1/C=C/C(=O)/C=C/c1ccccc1OC [C1, 1,5-bis(2-methoxyphenyl)penta-1,4-dien-3-one] | significantly promotes | – | – |
| O=C(/C=C/c1ccccc1Cl)/C=C/c1ccccc1Cl [E2] | – | significantly inhibit | – |
| O=C(/C=C/c1ccccc1Br)/C=C/c1ccccc1Br [E3] | – | significantly inhibit | – |
| O=C(/C=C/c1ccccc1I)/C=C/c1ccccc1I [E4] | – | significantly inhibit | phosphorylation of MTOR, dose-dependent (0-1 μM, 6 hours, dose-dependent manner): significantly inhibits; phosphorylation of both MTOR and p70S6K, time-dependent (1 μM, 0-6 hours, time-dependent manner): inhibits |
| COc1cc(/C=C/C(=O)CC(=O)/C=C/c2ccc(O)c(OC)c2)ccc1O [curcumin, Curcumin, reference compound] | inhibit | – | – |
